Measured values reported in ChEMBL document CHEMBL4819112, “Design, synthesis and antitumor activity of phthalazine-1,4-dione-based menaquinone analogs” (Bioorg Med Chem Lett, 2021).
Activity calls are given as the source filed them. The calls are words filed in the database; no cut-off is given here.

Key:
JHH7 = assay: (§1) Growth inhibition of human JHH7 cells measured after 24 hrs; assay type: functional, cell-based
Hepatocyte = assay: Growth inhibition of human hepatocytes cells upto 10 uM measured after 24 hrs; assay type: cell-based
[1] = as §1; assay type: functional, cell-based; settings: JHH7, 24 h
FLC-4 = assay: Growth inhibition of human FLC-4 cells measured after 24 hrs; assay type: functional, cell-based

| SMILES | Activity (JHH7) | Activity (Hepatocyte) | IC50 [1] [nM] | Activity (FLC-4) |
| --- | --- | --- | --- | --- |
| CC(C)=CCn1c(=O)c2ccccc2c(=O)n1C | Active | Non-Toxic | – | – |
| CC(C)=CCC/C(C)=C/CC/C(C)=C/Cn1c(=O)c2ccccc2c(=O)n1C | Active | – | – | – |
| CC(C)=CCC/C(C)=C/CC/C(C)=C/CC/C(C)=C/Cn1c(=O)c2ccccc2c(=O)n1C | Active | – | – | – |
| C/C(=C\CC/C(C)=C/Cn1c(=O)c2ccccc2c(=O)n1C)CC/C=C(\C)CC/C=C(\C)C(=O)O | Active | – | – | – |
| CC(C)=CCC/C(C)=C/Cn1c(=O)c2ccccc2c(=O)n1C | – | Non-Toxic | 340 | Active |
